Experimental data as given in patent US10765114B2, “4-amino-6-(pyridyl and 2-substitutedphenyl)-picolinates and 6-amino-2-(pyridyl and 2-substitutedphenyl)-pyrimidine-4-carboxylates and their use as herbicides” (Dow AgroSciences LLC, priority 2013, dated 2020).

system: Key Grass and Sedge Weeds as well as Grass Crops; experiment: Post-Emergent Test II (Table 6); format: in vivo; details: post-emergence, 336 h, DIGSA: crabgrass (Digitaria sanguinalis), 70 g ai/ha, 14 days after application, read-out: Visual Growth Reduction (%) 14 Days After Application DIGSA
Summary of the method: (§1)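 Visual injury ratings (0 = no injury, 100 = complete kill) taken 14 days after treatment, relative to untreated controls. Compounds, in an acetone/DMSO aqueous carrier with crop oil and surfactant, were applied by track sprayer at 187 L/ha, in a twofold dilution series from the top rate, to plants at the first to second true-leaf stage.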

| SMILES | pest or weed control at 70 g/ha [%] |
| --- | --- |
| COC(=O)c1nc(-c2ccc(Cl)c(F)c2SC)cc(N)c1Cl [Compound 58] | 0 to 29 |

same assay, conditions: post-emergence, 336 h, DIGSA: crabgrass (Digitaria sanguinalis), 140 g ai/ha, 14 days after application, read-out: Visual Growth Reduction (%) 14 Days After Application DIGSA

| SMILES | pest or weed control at 140 g/ha [%] |
| --- | --- |
| COC(=O)c1nc(-c2ccc(Cl)c(F)c2SC)cc(N)c1Cl [Compound 58] | 0 to 29 |

same assay, conditions: post-emergence, 336 h, ECHSS, 70 g ai/ha, 14 days after application, read-out: Visual Growth Reduction (%) 14 Days After Application ECHSS

| SMILES | pest or weed control at 70 g/ha [%] |
| --- | --- |
| COC(=O)c1nc(-c2ccc(Cl)c(F)c2SC)cc(N)c1Cl [Compound 58] | 0 to 29 |

same assay, conditions: post-emergence, 336 h, ECHSS, 140 g ai/ha, 14 days after application, read-out: Visual Growth Reduction (%) 14 Days After Application ECHSS

| SMILES | pest or weed control at 140 g/ha [%] |
| --- | --- |
| COC(=O)c1nc(-c2ccc(Cl)c(F)c2SC)cc(N)c1Cl [Compound 58] | 0 to 29 |

same assay, conditions: post-emergence, 336 h, ORYSS (crop), 70 g ai/ha, 14 days after application, read-out: Visual Growth Reduction (%) 14 Days After Application ORYSS

| SMILES | pest or weed control at 70 g/ha [%] |
| --- | --- |
| COC(=O)c1nc(-c2ccc(Cl)c(F)c2SC)cc(N)c1Cl [Compound 58] | 0 to 29 |

same assay, conditions: post-emergence, 336 h, ORYSS (crop), 140 g ai/ha, 14 days after application, read-out: Visual Growth Reduction (%) 14 Days After Application ORYSS

| SMILES | pest or weed control at 140 g/ha [%] |
| --- | --- |
| COC(=O)c1nc(-c2ccc(Cl)c(F)c2SC)cc(N)c1Cl [Compound 58] | 0 to 29 |

same assay, conditions: post-emergence, 336 h, SETFA: giant foxtail (Setaria faberi), 70 g ai/ha, 14 days after application, read-out: Visual Growth Reduction (%) 14 Days After Application SETFA

| SMILES | pest or weed control at 70 g/ha [%] |
| --- | --- |
| COC(=O)c1nc(-c2ccc(Cl)c(F)c2SC)cc(N)c1Cl [Compound 58] | 0 to 29 |

same assay, conditions: post-emergence, 336 h, SETFA: giant foxtail (Setaria faberi), 140 g ai/ha, 14 days after application, read-out: Visual Growth Reduction (%) 14 Days After Application SETFA

| SMILES | pest or weed control at 140 g/ha [%] |
| --- | --- |
| COC(=O)c1nc(-c2ccc(Cl)c(F)c2SC)cc(N)c1Cl [Compound 58] | 0 to 29 |

same assay, conditions: post-emergence, 336 h, SORVU: grain sorghum (Sorghum vulgare), 70 g ai/ha, 14 days after application, read-out: Visual Growth Reduction (%) 14 Days After Application SORVU

| SMILES | pest or weed control at 70 g/ha [%] |
| --- | --- |
| COC(=O)c1nc(-c2ccc(Cl)c(F)c2SC)cc(N)c1Cl [Compound 58] | 0 to 29 |

same assay, conditions: post-emergence, 336 h, SORVU: grain sorghum (Sorghum vulgare), 140 g ai/ha, 14 days after application, read-out: Visual Growth Reduction (%) 14 Days After Application SORVU

| SMILES | pest or weed control at 140 g/ha [%] |
| --- | --- |
| COC(=O)c1nc(-c2ccc(Cl)c(F)c2SC)cc(N)c1Cl [Compound 58] | 0 to 29 |

same assay, conditions: post-emergence, 336 h, TRZSS (crop), 70 g ai/ha, 14 days after application, read-out: Visual Growth Reduction (%) 14 Days After Application TRZSS

| SMILES | pest or weed control at 70 g/ha [%] |
| --- | --- |
| COC(=O)c1nc(-c2ccc(Cl)c(F)c2SC)cc(N)c1Cl [Compound 58] | 0 to 29 |

same assay, conditions: post-emergence, 336 h, TRZSS (crop), 140 g ai/ha, 14 days after application, read-out: Visual Growth Reduction (%) 14 Days After Application TRZSS

| SMILES | pest or weed control at 140 g/ha [%] |
| --- | --- |
| COC(=O)c1nc(-c2ccc(Cl)c(F)c2SC)cc(N)c1Cl [Compound 58] | 0 to 29 |

same assay, conditions: post-emergence, 336 h, ZEAMX: maize, corn (Zea mays), 70 g ai/ha, 14 days after application, read-out: Visual Growth Reduction (%) 14 Days After Application ZEAMX

| SMILES | pest or weed control at 70 g/ha [%] |
| --- | --- |
| COC(=O)c1nc(-c2ccc(Cl)c(F)c2SC)cc(N)c1Cl [Compound 58] | 0 to 29 |

same assay, conditions: post-emergence, 336 h, ZEAMX: maize, corn (Zea mays), 140 g ai/ha, 14 days after application, read-out: Visual Growth Reduction (%) 14 Days After Application ZEAMX

| SMILES | pest or weed control at 140 g/ha [%] |
| --- | --- |
| COC(=O)c1nc(-c2ccc(Cl)c(F)c2SC)cc(N)c1Cl [Compound 58] | 0 to 29 |

system: Key Broadleaf Weed and Crop Species; experiment: Post-Emergent Test II (Table 5); format: in vivo; details: Abutilon theophrasti, post-emergence, 336 h, ABUTH: velvetleaf (Abutilon theophrasti), application rate 70 (kg ai/ha; footnote: g ai/ha), read-out: Visual Growth Reduction (%) 14 Days After Application ABUTH
Summary of the method: as §1

| SMILES | pest or weed control at 70 g/ha [%] |
| --- | --- |
| COC(=O)c1nc(-c2ccc(Cl)c(F)c2SC)cc(N)c1Cl [Compound 58] | 85 to 94 |

same assay, conditions: Abutilon theophrasti, post-emergence, 336 h, ABUTH: velvetleaf (Abutilon theophrasti), application rate 140 (kg ai/ha; footnote: g ai/ha), read-out: Visual Growth Reduction (%) 14 Days After Application ABUTH

| SMILES | pest or weed control at 140 g/ha [%] |
| --- | --- |
| COC(=O)c1nc(-c2ccc(Cl)c(F)c2SC)cc(N)c1Cl [Compound 58] | 85 to 94 |

same assay, conditions: Amaranthus retroflexus, post-emergence, 336 h, AMARE: redroot pigweed (Amaranthus retroflexus), application rate 70 (kg ai/ha; footnote: g ai/ha), read-out: Visual Growth Reduction (%) 14 Days After Application AMARE

| SMILES | pest or weed control at 70 g/ha [%] |
| --- | --- |
| COC(=O)c1nc(-c2ccc(Cl)c(F)c2SC)cc(N)c1Cl [Compound 58] | 85 to 94 |

same assay, conditions: Amaranthus retroflexus, post-emergence, 336 h, AMARE: redroot pigweed (Amaranthus retroflexus), application rate 140 (kg ai/ha; footnote: g ai/ha), read-out: Visual Growth Reduction (%) 14 Days After Application AMARE

| SMILES | pest or weed control at 140 g/ha [%] |
| --- | --- |
| COC(=O)c1nc(-c2ccc(Cl)c(F)c2SC)cc(N)c1Cl [Compound 58] | 95 to 100 |

same assay, conditions: Brassica napus, post-emergence, 336 h, BRSSS: oilseed rape, canola (Brassica napus), application rate 70 (kg ai/ha; footnote: g ai/ha), read-out: Visual Growth Reduction (%) 14 Days After Application BRSSS

| SMILES | pest or weed control at 70 g/ha [%] |
| --- | --- |
| COC(=O)c1nc(-c2ccc(Cl)c(F)c2SC)cc(N)c1Cl [Compound 58] | 30 to 44 |

same assay, conditions: Brassica napus, post-emergence, 336 h, BRSSS: oilseed rape, canola (Brassica napus), application rate 140 (kg ai/ha; footnote: g ai/ha), read-out: Visual Growth Reduction (%) 14 Days After Application BRSSS

| SMILES | pest or weed control at 140 g/ha [%] |
| --- | --- |
| COC(=O)c1nc(-c2ccc(Cl)c(F)c2SC)cc(N)c1Cl [Compound 58] | 60 to 74 |

same assay, conditions: Chenopodium album, post-emergence, 336 h, CHEAL: lambsquarters (Chenopodium album), application rate 70 (kg ai/ha; footnote: g ai/ha), read-out: Visual Growth Reduction (%) 14 Days After Application CHEAL

| SMILES | pest or weed control at 70 g/ha [%] |
| --- | --- |
| COC(=O)c1nc(-c2ccc(Cl)c(F)c2SC)cc(N)c1Cl [Compound 58] | 95 to 100 |

same assay, conditions: Chenopodium album, post-emergence, 336 h, CHEAL: lambsquarters (Chenopodium album), application rate 140 (kg ai/ha; footnote: g ai/ha), read-out: Visual Growth Reduction (%) 14 Days After Application CHEAL

| SMILES | pest or weed control at 140 g/ha [%] |
| --- | --- |
| COC(=O)c1nc(-c2ccc(Cl)c(F)c2SC)cc(N)c1Cl [Compound 58] | 95 to 100 |

same assay, conditions: Euphorbia heterophylla, post-emergence, 336 h, EPHHL: wild poinsettia (Euphorbia heterophylla), application rate 70 (kg ai/ha; footnote: g ai/ha), read-out: Visual Growth Reduction (%) 14 Days After Application EPHHL

| SMILES | pest or weed control at 70 g/ha [%] |
| --- | --- |
| COC(=O)c1nc(-c2ccc(Cl)c(F)c2SC)cc(N)c1Cl [Compound 58] | 0 to 29 |

same assay, conditions: Euphorbia heterophylla, post-emergence, 336 h, EPHHL: wild poinsettia (Euphorbia heterophylla), application rate 140 (kg ai/ha; footnote: g ai/ha), read-out: Visual Growth Reduction (%) 14 Days After Application EPHHL

| SMILES | pest or weed control at 140 g/ha [%] |
| --- | --- |
| COC(=O)c1nc(-c2ccc(Cl)c(F)c2SC)cc(N)c1Cl [Compound 58] | 0 to 29 |

same assay, conditions: Helianthus annuus, post-emergence, 336 h, HELAN: sunflower (Helianthus annuus), application rate 70 (kg ai/ha; footnote: g ai/ha), read-out: Visual Growth Reduction (%) 14 Days After Application HELAN

| SMILES | pest or weed control at 70 g/ha [%] |
| --- | --- |
| COC(=O)c1nc(-c2ccc(Cl)c(F)c2SC)cc(N)c1Cl [Compound 58] | 0 to 29 |

same assay, conditions: Helianthus annuus, post-emergence, 336 h, HELAN: sunflower (Helianthus annuus), application rate 140 (kg ai/ha; footnote: g ai/ha), read-out: Visual Growth Reduction (%) 14 Days After Application HELAN

| SMILES | pest or weed control at 140 g/ha [%] |
| --- | --- |
| COC(=O)c1nc(-c2ccc(Cl)c(F)c2SC)cc(N)c1Cl [Compound 58] | 75 to 84 |

same assay, conditions: Viola tricolor, post-emergence, 336 h, VIOTR: wild pansy (Viola tricolor), application rate 70 (kg ai/ha; footnote: g ai/ha), read-out: Visual Growth Reduction (%) 14 Days After Application VIOTR

| SMILES | pest or weed control at 70 g/ha [%] |
| --- | --- |
| COC(=O)c1nc(-c2ccc(Cl)c(F)c2SC)cc(N)c1Cl [Compound 58] | 0 to 29 |

same assay, conditions: Viola tricolor, post-emergence, 336 h, VIOTR: wild pansy (Viola tricolor), application rate 140 (kg ai/ha; footnote: g ai/ha), read-out: Visual Growth Reduction (%) 14 Days After Application VIOTR

| SMILES | pest or weed control at 140 g/ha [%] |
| --- | --- |
| COC(=O)c1nc(-c2ccc(Cl)c(F)c2SC)cc(N)c1Cl [Compound 58] | 0 to 29 |
